What all share (experiment): growth of human tumour cells (NCI), 48 h
For experiment [1], the system named is OVCAR-8 ovarian.
The subject of experiment [2] is SF-539 CNS.
For experiment [3], the system named is UACC-257 melanoma.
Experiment [4] concerns MALME-3M melanoma.
The test system of experiment [5] is HS 578T breast.
Experiment [6] deals with LOX IMVI melanoma.
Experiment [7] has as its system UO-31 renal.
For experiment [8], the system named is SNB-19 CNS.
For experiment [9], the system named is NCI-H522 lung.
Experiment [10] relates to A498 renal.
In experiment [11] the test system is SF-295 CNS.
For experiment [12], the system named is MCF7 breast.
In experiment [13] the test system is KM12 colon.
Experiment [14] deals with T-47D breast.
For experiment [15], the system named is SK-OV-3 ovarian.
In experiment [16] the test system is HCC-2998 colon.
The subject of experiment [17] is ACHN renal.
The subject of experiment [18] is SR leukemia.
Experiment [19] deals with CCRF-CEM leukemia.

Structures are written as SMILES.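 All cell lines were grown in 96-well plates and treated with compound for 48 hours. The concentration for full growth arrest is given as TGI.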 *1 amine or outer side, *2 acyl side, *3 side chain or, on linkers, in order; H or OH if unused. Where a SMILES comes first, the peptide text is derived from it. The star is where a group is joined. γGlu = O=C(O)[CH](CCC(=O)[*:2])N[*:1]; NHOH = ON*

For the compound `O=C(Nc1ncc([N+](=O)[O-])s1)c1ccccc1O`, the TGI is over 100 µM in experiment [1]; over 100 µM in [2]; 98.4 µM in experiment [3]; 77.2 µM in experiment [4]; 32.5 µM in experiment [5]; over 100 µM in experiment [6]. Also, the TGI in experiment [7] was 98.1 µM; in [8], over 100 µM; in experiment [9], 28.3 µM; in experiment [10], over 100 µM; in experiment [11], 46.5 µM; in experiment [12], over 100 µM. For the same compound, the TGI in experiment [13] was 68.7 µM; in experiment [14] it was 64 µM; in [15] it was over 100 µM; in experiment [16], over 100 µM; in experiment [17] it was over 84.5 µM.
As for `O=c1c2cc(S(=O)(=O)Nc3ccc(Cl)cc3Cl)ccc2ncn1NS(=O)(=O)c1cccc2ccccc12`, the TGI in [1] is over 100 µM; in experiment [2], over 100 µM; in experiment [18], 70.6 µM; in experiment [3], over 100 µM; in [4], over 100 µM; in [5], over 100 µM. The TGI in experiment [6] was 50 µM; in experiment [7] it was 62.3 µM; in [8] it was over 100 µM; in experiment [9], over 100 µM; in experiment [11], over 100 µM; in experiment [12], over 100 µM. Moreover, the TGI in [13] was over 100 µM; in experiment [15], over 100 µM; in [16] it was over 100 µM; in [17], over 100 µM; in experiment [19], 47.7 µM.
Regarding `NNc1ncc2c(n1)-c1ccccc1OC2`, the TGI in experiment [1], in [2], in [18], in experiment [3], in experiment [4] and in experiment [5] was over 100 µM each time. The TGI in experiment [6], in experiment [7], in [8], in experiment [9], in [11] and in experiment [12] was over 100 µM each time. Also, the TGI in [13], in [15], in experiment [17] and in experiment [19] was over 100 µM throughout.
Consider `O=S(=O)(Oc1ccc2ccccc2c1-c1c(OS(=O)(=O)C(F)(F)F)ccc2ccccc12)C(F)(F)F`, for which the TGI in experiment [1] is over 100 µM; in [2], over 100 µM; in experiment [18] it was over 100 µM; in experiment [3], 8.3 µM; in [4], over 100 µM; in experiment [5], over 100 µM. The TGI in experiment [7], in experiment [8], in [9], in experiment [10], in experiment [11] and in experiment [12] was over 100 µM in each case. The TGI in experiment [13], in [15], in experiment [16], in experiment [17] and in [19] was over 100 µM in each case.
In the case of `CCOC(=O)C(NC(=O)c1cccc(Cl)c1)(N1CCN(c2cc3c(cc2F)c(=O)c(C(=O)O)cn3C2CC2)CC1)C(F)(F)F` (stereo not given), the TGI came to 60.7 µM in experiment [1]; 31.3 µM in [2]; 25.8 µM in experiment [18]; 32.2 µM in experiment [4]; 58 µM in [5]; 47.3 µM in experiment [7]. For the same compound, the TGI in experiment [8] is 84.9 µM; in experiment [10], 55.7 µM; in [11], 53.5 µM; in experiment [13], 23.9 µM; in experiment [14], 48.9 µM; in experiment [15], 66.5 µM. Moreover, the results for the TGI in [16], in experiment [17] and in [19] were 34.8 µM, 31 µM and 9.78 µM, respectively.
With `COC(=O)/C=C(\C)CC/C=C(\C)CCC(O)C(C)(C)O` (stereo not given), the TGI in experiment [1] is 67 µM; in [2], 35.9 µM; in experiment [18], 44.6 µM; in experiment [3] it was over 100 µM; in experiment [4], 41.5 µM; in experiment [5] it was 98.5 µM. The TGI in experiment [6] was 31.5 µM; in experiment [7], over 100 µM; in experiment [8], over 100 µM; in experiment [10], over 100 µM; in experiment [11] it was 61.6 µM; in [12], over 100 µM. Moreover, the TGI in [13] is 28.4 µM; in experiment [15], over 100 µM; in experiment [16], 47.2 µM; in experiment [17] it was 75 µM; in experiment [19] it was 41.8 µM.
As to `COC(=O)c1ccccc1C1=C([N+](=O)[O-])C(c2cccc(Br)c2)C(C#N)=C(N)O1` (stereo not given), the TGI was 45.1 µM in [1]; over 100 µM in [2]; over 100 µM in experiment [18]; over 100 µM in experiment [3]; 56.9 µM in experiment [5]; 38.1 µM in experiment [6]. Further, the TGI was over 100 µM in [8]; 29.2 µM in experiment [9]; over 100 µM in experiment [11]; 84.6 µM in experiment [14]; over 100 µM in experiment [15]; over 100 µM in experiment [16]. The TGI in experiment [17] was determined as 43.4 µM; in experiment [19], 61.8 µM.
Consider `Cn1cnc2c1c(=O)n(CCNCCO)c(=O)n2C`, for which the TGI in experiment [1], in experiment [2], in [3], in [4], in experiment [5] and in experiment [6] was over 100 µM throughout. For the same compound, the TGI in experiment [7], in [8], in [9], in experiment [10], in [11] and in [12] was over 100 µM throughout. Moreover, the TGI in experiment [13], in [14], in experiment [15], in experiment [16], in experiment [17] and in experiment [19] was over 100 µM each time.
As to `CC(=O)OCC1OC(Oc2cc(C)c(O)cc2C/C=C(\C)CC/C=C(\C)C[C@@H](C=C(C)C)OC(C)=O)C(O)C(OC(C)=O)C1OC(C)=O` (stereo not given in full), the TGI in experiment [1] was over 50 µM; in experiment [3], 39.8 µM; in experiment [4], over 50 µM; in experiment [5], 39.2 µM; in experiment [6], 47.3 µM; in experiment [7] it was over 50 µM. In addition, the TGI in [8] is over 50 µM; in experiment [9] it was over 50 µM; in experiment [10], 41.9 µM; in experiment [11], over 50 µM; in [12], over 50 µM; in experiment [13], over 50 µM. The TGI is 30.7 µM in experiment [14]; over 50 µM in experiment [15]; 41.2 µM in experiment [16]; over 50 µM in experiment [17]; 29.4 µM in experiment [19].
For `CCOC(=O)CNC(=O)C(CCC(=O)NO)NC(=O)CCC(N)C(=O)O` (stereo not given) (γGlu-Glu(NHOH)-Gly-OEt; configuration not given here), the TGI in experiment [1], in experiment [2], in experiment [3], in [5], in experiment [6] and in [7] was over 100 µM each time. Moreover, the TGI in [8], in [9], in [10], in experiment [11], in experiment [12] and in experiment [13] was over 100 µM throughout. For the same compound, the TGI in [14], in experiment [15], in experiment [16], in experiment [17] and in experiment [19] was over 100 µM each time.
Regarding `CC(NC(=O)OC(C)(C)C)C(=O)NC(Cc1ccccc1)C(=O)NCC(=O)Oc1c(Cl)c(Cl)c(Cl)c(Cl)c1Cl` (stereo not given), the TGI in [1] was 43.9 µM; in experiment [18] it was 64.7 µM; in experiment [3], 54.5 µM; in experiment [4] it was 49.2 µM; in [5], over 100 µM; in experiment [7], 33.9 µM. Further, the TGI in [8] was over 100 µM; in [10], 47.8 µM; in experiment [12], 89.6 µM; in experiment [13], over 100 µM; in [16] it was 30.6 µM; in experiment [17], 67.6 µM.
Take `N#CC1=C(N)OC(c2cccc([N+](=O)[O-])c2)C1(C#N)C#N` (stereo not given): the TGI in experiment [1] was 92.8 µM; in [2] it was 42.5 µM; in experiment [3], 31.3 µM; in [4], 49.3 µM; in experiment [5] it was over 100 µM; in experiment [6], 28.4 µM. In addition, the TGI turned out to be 32.8 µM in [7]; 42.5 µM in experiment [8]; 28.8 µM in experiment [9]; 36.7 µM in [10]; 73.2 µM in [11]; 48.5 µM in experiment [12]. The TGI is 45.1 µM in experiment [14], over 100 µM in experiment [15], 35.2 µM in experiment [16] and 33.2 µM in [17].
Turning to `CCCCCCC1CC(=O)C1(Cl)Cl` (stereo not given), the TGI in experiment [1] is 59.5 µM; in [2] it was over 100 µM; in experiment [3], 41.1 µM; in experiment [4] it was 38.8 µM; in experiment [5], over 100 µM; in experiment [6], 44.6 µM. For the same compound, the TGI was 34.2 µM in experiment [7]; over 100 µM in [8]; 34.6 µM in experiment [9]; over 100 µM in experiment [11]; 63.7 µM in experiment [12]; 55.7 µM in experiment [13]. The TGI in experiment [14] is over 100 µM; in experiment [15] it was over 100 µM; in experiment [16], 57.4 µM; in experiment [17] it was 35.8 µM; in experiment [19] it was 29.6 µM.

The record behind these values is PubChem BioAssay (NCI).
